Reference: US20260226006A1, “INDOLE COMPOUND, PREPARATION METHOD THEREFOR AND USE THEREOF” (SUZHOU MERNA THERAPEUTICS CO. LTD, priority 2023, published 2026)

Tests used:
[1] = test system: skin of hind limb toes of mice; test: Kinase inhibitor-induced mouse models with hand-foot skin reaction (Example 24); assay type: in vivo, ICR mice; settings: for expression level of cytokine IL-1β in skin tissues of hind limb toes / thickening of the epidermal layer and the stratum corneum in the skin tissues (pathological staining) / swelling of the toes caused by the modeling drugs: compound 2b 3% ointment topical or nicotinamide 100 mg/kg oral; for thickening of the epidermal layer and the stratum corneum in the skin tissues (pathological staining) / swelling of the toes caused by the modeling drugs: sorafenib or osimertinib model; for swelling of the toes caused by the modeling drugs: once daily 16 days; for degree of swelling of hind limb toes / epidermal layer and stratum corneum in skin tissues of hind limb toes (pathological staining): modeling drug oral for 14 days; for skin appearance of hind limb toes: modeling for 14 days, sorafenib 100 mg/kg or osimertinib 10 mg/kg oral
Description: After adaptive feeding for 7 days, SPF-grade ICR mice (male, 5-6 weeks old, with a body weight of approximately 35 g) were randomly divided into groups, including a blank control group (6 mice), a sorafenib modeling group (6 mice), an osimertinib modeling group (6 mice), a sorafenib+compound 2b group (6 mice), an osimertinib+compound 2b group (6 mice), a sorafenib+nicotinamide group (6 mice), and an osimertinib+nicotinamide group (6 mice). The groups were respectively administered corresponding modeling drugs by oral gavage (sorafenib at 100 mg/kg and osimertinib at 10 mg/kg) once daily, and the blank control group was administered an equivalent volume of normal saline. After administration with the chemotherapeutic drugs for 2 weeks, the compound ointments (at a compound content of 3%) used in Example 22 were respectively applied topically in the groups or nicotinamide was orally administered (100 mg/kg) once daily continuously for 16 days.
Measurement of the degree of swelling of toes: The degree of swelling of hind limb toes of the mice was measured using a toe swelling tester (KW-7C, Nanjing Calvin Biotechnology Co., Ltd.) before administration with the modeling drugs, after administration with the modeling drugs for 2 weeks, and before sacrifice, respectively. Before measurement, ankle joints of hind paws of the mice were marked at same positions before administration, after administration for 2 weeks, and before sacrifice. During measurement, water was properly located at the same level as the marked positions, and numerical values were recorded after becoming stable.
Pathological staining of skin tissues: Skin tissue samples were selected from hind limb toes of the mice and placed in 4% paraformaldehyde for fixation at room temperature for 4 hours. Then, the tissues were taken out and rinsed with running water for several hours. The samples were subjected to dehydration treatment with 70%, 80%, and 90% ethanol solutions, followed by treatment with a mixed solution of equal amounts of absolute alcohol and xylene for 15 minutes, and then permeabilized twice with a xylene solution for 15 minutes each time until the samples became transparent. The samples were placed in a mixture of half xylene and half paraffin for soaking for 15 minutes, and then, paraffin I and paraffin II were added for wax penetration for one hour, respectively. After embedding with paraffin, the samples were sectioned, baked, dewaxed, and hydrated. Then, the hydrated sections were placed in a hematoxylin solution (ZSGB-BIO, article No. 23041001) for staining for 3 minutes, and a differentiation solution of hydrochloric acid in ethanol was added for differentiation for 15 seconds. After rinsing with water, a Scott bluing solution (Servicebio, article No. 20230801) was added for bluing for 15 seconds. After rinsing with running water, the sections were stained with an eosin solution (Solarbio, article No. 33535) for 3 minutes, rinsed with running water, dehydrated, permeabilized, sealed, and inspected under a microscope.
Immunohistochemical staining: After baking, dewaxing, and hydration, paraffin sections of skin tissues of hind limb toes of the mice were subjected to antigen retrieval using a 0.2 M citric acid buffer solution (containing 1.534 g of citric acid, 3.1 g of sodium citrate, and 100 mL of distilled water, pH 4.7). Endogenous […] was removed using 3% hydrogen peroxide (Shandong Annjet High-Tech Disinfection Technology Co., Ltd., article No. 20290902), and the sections were incubated at room temperature for 10 minutes and then fully rinsed with a PBS buffer solution (containing 8 g of NaCl, 0.2 g of KCl, 1.44 g of Na2HPO4, and 1 M HCl, pH 7.4). The sections were permeabilized with 0.5% Triron-X-100 (AmyJet Scientific, article No. A-CSH436-100 mL), respectively permeabilized with mouse anti-IL-1β and rabbit IL-8 for 10 minutes, and not permeabilized with rabbit anti-IL-6. […]

THP-1 cells = test: m6A methylation level of THP-1 cells by LC-MS (Example 19); assay type: cell-based; settings: 24 hours
Description: 1*10^8 THP-1 cells were seeded in culture dishes, into which 400 nM compound 1, 4 nM and 400 nM compounds 2b, 5a, and 8b, 4 nM and 4 μM nicotinamide, and 5 μM m6A methylase inhibitor UZH2 were added, respectively. The cells were cultured in an incubator containing 5% CO2 at 37° C. for 24 hours. After culture media were discarded, the cells were washed with PBS and centrifuged to discard the supernatant. 400 μL of an RLT cell lysis buffer was added, and the cells were stored at −80° C. A portion of samples were selected, into which 400 μL of 70% ethanol was added and evenly stirred. 700 μL of a sample was transferred to an RNeasy centrifugation column and centrifuged for 15 seconds (8,000 g, 25° C.). Then, 700 μL of an RW1 buffer solution was added and centrifuged for 15 seconds (8,000 g, 25° C.), followed by the addition of 500 μL of an RPE buffer solution and centrifugation for 16 seconds (8,000 g, 25° C.). The above steps were repeated twice, followed by centrifugation for 2 minutes to completely remove the eluent. 30 μL of nuclease-free water was added to a chromatographic column, and the cells were incubated for 5 minutes and then centrifuged for 2 minutes (12,000 g, 25° C.). The steps were repeated 3 times. 2 μL of an RNA sample was selected and dissolved in 98 μL of a 10 mM Tris buffer solution, and the absorbance at 260 nm was measured using a Nanodrop to determine the RNA concentration.
50 μg of total RNA was selected and dissolved in 100 μL of nuclease-free water. Oligo (dT) magnetic beads were resuspended, 50 μL of the magnetic beads were transferred to a 1.5 mL test tube, 500 μL of a binding buffer solution was added, the mixture was allowed to stand, and the supernatant was removed. 100 μL of an RNA sample was added to 200 μL of a magnetic bead suspension for mixing, the mixture was stirred and incubated in a Thermomixer at 25° C. for 5 minutes, the supernatant was discarded, and then 200 μL of a washing buffer solution was added. The steps were repeated 2 times, and then centrifugation was performed for 10 seconds (2,000 g, 25° C.). 50 μL of an elution buffer solution was added and evenly mixed, the mixture was heated to 75° C., the supernatant was transferred to a new 1.5 mL test tube and purified using an RNA Clean & Concentrator kit, and the RNA concentration was determined.
20 μL (approximately 200 ng) of an mRNA sample and 20 μL of a Nuclease P1 digestion premix (including 0.5 μL of 2 unit/μL Nuclease P1, 0.4 μL of 5 M NaCl, 2 μL of 0.1 M ZnCl2, and 17.1 μL of PCR-grade water) were added into each test tube, and the mixture was stirred and incubated in a Thermomixer at 37° C. for 2 hours. 2 μL of a 2 M NH4HCO3 solution and 1 unit of alkaline phosphatase were added, and the mixture was stirred and incubated in a Thermomixer at 37° C. for 2 hours. 1 μL of a 1.2 M HCl neutralization solution was added, and centrifugation was performed for 30 minutes (16,000 g, 4° C.). 20 μL of the supernatant was collected, an m6A methylation fragment was analyzed by LC-MS, and the m6A inhibition rate was calculated.
m6A inhibition rate (%)=(measured ion peak area−blank control)/(positive ion peak area−blank control)*100.

Q: What does the source list for `NC(=O)[C@H]1CCCc2c1[nH]c1ccc(Cl)cc21` [Compound 2b, (S)-6-chloro-2,3,4,9-tetrahydro-1H-carbazole-1-carboxamide]?
A: expression level of cytokine IL-1β in skin tissues of hind limb toes ([1]; osimertinib model): significantly decrease; expression level of cytokine IL-1β in skin tissues of hind limb toes ([1]; sorafenib model): significantly decrease; thickening of the epidermal layer and the stratum corneum in the skin tissues (pathological staining) [1]: effectively alleviate; swelling of the toes caused by the modeling drugs [1]: effectively alleviate; m6A methylation level of mRNA of the cells (THP-1 cells; 4 nM and 400 nM): significantly inhibit; m6A inhibition activity (THP-1 cells; 400 nM): comparable to that of the m6A methylase inhibitor UZH2 at a concentration of 5 μM

Q: With `NC(=O)C1c2[nH]c3ccc(Cl)cc3c2C2CCC1C2` [Compound 5a, (S)-2-chloro-5,6,7,8,9,10-hexahydro-7,10-methanocyclohepta[b]indole-6-carboxamide] as the compound, how does the “m6A methylation level of mRNA of the cells” value (“m6A methylation level” below) (THP-1 cells; 4 nM and 400 nM) read?
A: Its value is “significantly inhibit”.

Q: With `CN1CC[C@H](C(N)=O)c2[nH]c3ccc(Cl)cc3c21` [Compound 8b, (S)-8-chloro-1-methyl-2,3,4,5-tetrahydropyrido[3,2-b]indole-4-carboxamide] as the compound, how does the “m6A methylation level” value (THP-1 cells; 4 nM and 400 nM) read?
A: Its value is “significantly inhibit”.

Q: With `NC(=O)c1cccnc1` [Nicotinamide, nicotinamide] as the compound, how does the “expression level of cytokine IL-1β in skin tissues of hind limb toes” value ([1]; osimertinib model) read?
A: The value was “does not have a significant impact”.

Q: And the “expression level of cytokine IL-1β in skin tissues of hind limb toes” value ([1]; sorafenib model)?
A: The value was “does not have a significant impact”.

Q: And the “thickening of the epidermal layer and the stratum corneum in the skin tissues (pathological staining)” value [1]?
A: Its value is “does not significantly alleviate”.

Q: And the “swelling of the toes caused by the modeling drugs” value [1]?
A: The value was “not observed that oral administration of the nicotinamide at 100 mg/kg significantly alleviates the swelling”.

Q: And the “m6A methylation level” value (THP-1 cells; 4 nM and 4 μM)?
A: Its value is “no inhibitory effect”.

Q: `C=CC(=O)Nc1cc(Nc2nccc(-c3cn(C)c4ccccc34)n2)c(OC)cc1N(C)CCN(C)C` [Osimertinib, osimertinib, reference compound] was tested. Which “degree of swelling of hind limb toes” value [1] did it give?
A: The value was “significant swelling”.

Q: And the “epidermal layer and stratum corneum in skin tissues of hind limb toes (pathological staining)” value [1]?
A: The value was “significantly thickened”.

Q: What about the “skin appearance of hind limb toes” value [1] of the same compound?
A: The value was “obvious erythema and rhagades”.

Q: What about the “cytokine IL-1β in skin tissues of hind limb toes (immunohistochemistry)” value ([1]; osimertinib oral for 14 days) of the same compound?
A: Its value is “significantly increased”.

Q: `CNC(=O)c1cc(Oc2ccc(NC(=O)Nc3ccc(Cl)c(C(F)(F)F)c3)cc2)ccn1` [Sorafenib, sorafenib, reference compound] was tested. Which “degree of swelling of hind limb toes” value [1] did it give?
A: The value was “significant swelling”.

Q: And the “epidermal layer and stratum corneum in skin tissues of hind limb toes (pathological staining)” value [1]?
A: The value was “significantly thickened”.

Q: What about the “skin appearance of hind limb toes” value [1] of the same compound?
A: Its value is “obvious erythema and rhagades”.

Q: And the “cytokine IL-1β in skin tissues of hind limb toes (immunohistochemistry)” value ([1]; sorafenib oral for 14 days)?
A: Its value is “significantly increased”.
